Assay results from US8389730B2, “Compositions and methods for the treatment of disease associated with TRP-P8 expression” (Dendreon Corporation, priority 2003, dated 2013).

Target: T1, Trp-p8 (Homo sapiens, UniProt Q7Z2W7, T58I)
T1 construct: expressed in transfected cells
Test: Cell viability (ATP) assay for Trp-p8 antagonists: protection of CHO/Trp-p8 cells from toxic control agonist D-1607
Format: cell-based
Conditions: Table 2, Formula VIII antagonists; 10 μM compound plus toxic concentration of control agonist D-1607, CHO/Trp-p8 cells, 37° C.; ATP level relative to DMSO
Procedure: FIG. 4 is a graph depicting exemplary results from a primary screen for Trp-p8 antagonists using the ATP viability assay, described herein, with CHO/Trp-p8 cells at 37° C. CHO/Trp-p8 cells were exposed to compounds, at different concentrations, in 1% DMSO or 1% DMSO in combination with a toxic concentration of the Trp-p8 agonist 1607. The viability of cells was measured after 24-26 hours at 37° C. using the ATP assay.
As a primary screen for efficacy and specificity for agonists, both the non-transfected CHO and CHO/Trp-p8 cells were exposed to 10 μM of test compounds in 1% dimethylsulfoxide (DMSO) or 1% DMSO (control) in a 96-well black walled, black-bottomed, cell-culture treated plate. DMSO was the solvent for all of the compounds tested. After 24-26 hours at 37° C., the cells were lysed and ATP concentration determined via a chemiluminescence assay using a commercially available reagent kit—Cell Titer-Glo (Promega; Madison, Wis.). […] (EC50 is defined herein as the agonist concentration at which there is a 50% reduction in cell viability).
Trp-p8 antagonists were identified by employing a cell viability assay with CHO/Trp-p8 cells at 37° C. (see Example 7) with the following modification. Within the context of the present invention, compounds that protect CHO/Trp-p8 cells from the toxic effect of a control agonist thereby maintaining the viability of the CHO/Trp-p8 cell exposed to a Trp-p8 agonist is defined as antagonist. As a primary screen for antagonists, CHO/Trp-p8 cells were exposed to 10 μM of test compounds in 1% dimethylsulfoxide (DMSO) or 1% DMSO plus a toxic concentration of a control agonist, D-1607.

T1 sequence (Q7Z2W7 whole entry T58I): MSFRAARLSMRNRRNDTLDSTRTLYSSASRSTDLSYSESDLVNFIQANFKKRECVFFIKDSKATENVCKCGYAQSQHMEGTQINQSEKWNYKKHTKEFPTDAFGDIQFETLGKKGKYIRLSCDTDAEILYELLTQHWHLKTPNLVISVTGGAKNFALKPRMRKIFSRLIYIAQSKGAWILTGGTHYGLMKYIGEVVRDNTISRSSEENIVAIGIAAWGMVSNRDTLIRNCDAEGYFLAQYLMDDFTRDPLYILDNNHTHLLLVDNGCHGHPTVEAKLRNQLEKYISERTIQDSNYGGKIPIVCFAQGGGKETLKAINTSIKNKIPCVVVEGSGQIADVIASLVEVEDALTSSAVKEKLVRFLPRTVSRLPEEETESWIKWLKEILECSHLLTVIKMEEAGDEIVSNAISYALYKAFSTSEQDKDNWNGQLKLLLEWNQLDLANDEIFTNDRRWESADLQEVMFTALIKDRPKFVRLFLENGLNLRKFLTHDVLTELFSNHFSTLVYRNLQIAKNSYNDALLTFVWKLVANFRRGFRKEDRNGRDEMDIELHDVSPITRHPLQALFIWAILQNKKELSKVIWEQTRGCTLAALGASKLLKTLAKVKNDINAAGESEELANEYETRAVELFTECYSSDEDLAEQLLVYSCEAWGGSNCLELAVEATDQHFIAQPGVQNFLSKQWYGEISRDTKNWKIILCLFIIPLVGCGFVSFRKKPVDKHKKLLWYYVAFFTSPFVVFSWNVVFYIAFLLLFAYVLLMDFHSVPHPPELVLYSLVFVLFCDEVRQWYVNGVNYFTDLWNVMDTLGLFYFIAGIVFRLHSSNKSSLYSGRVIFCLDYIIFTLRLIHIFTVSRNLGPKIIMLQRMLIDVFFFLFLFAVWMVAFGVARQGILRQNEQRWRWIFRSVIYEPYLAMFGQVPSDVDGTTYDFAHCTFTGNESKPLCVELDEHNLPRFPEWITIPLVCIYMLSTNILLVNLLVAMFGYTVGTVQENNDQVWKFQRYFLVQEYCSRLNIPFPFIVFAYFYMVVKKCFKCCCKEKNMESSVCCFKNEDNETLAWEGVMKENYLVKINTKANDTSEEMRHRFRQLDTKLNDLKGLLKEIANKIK

First: CC(C)[C@@H]1CC[C@@H](C)C[C@H]1NC(=O)CCC1CCCC1 [compound 1996]
Second: CC(C)[C@@H]1CC[C@@H](C)C[C@H]1NC(=O)NCCCSC1CCCCC1 [compound 1882]
The “Relative Viability (%) at 10 μM” value of the first is higher: 89% for the first, 85% for the second.

Going from `CC(C)[C@@H]1CC[C@@H](C)C[C@H]1C(=O)Nc1nnc(Sc2ccnc3cc(Cl)ccc23)s1` [compound 3026] to `Cc1ccc(O)c(CN[C@@H]2C[C@H](C)CC[C@H]2C(C)C)c1` [compound 2710], the “Relative Viability (%) at 10 μM” value falls from 86% to 70%.

Going from `CCCC1c2cccn2CCC1C(=O)N[C@@H]1C[C@H](C)CC[C@H]1C(C)C` (stereo partly shown) [compound 1838] to `CC(C)[C@@H]1CC[C@@H](C)C[C@H]1NC(=O)[C@@]12CC[C@@](C)(C(=O)O1)C2(C)C` [compound 2046], the “Relative Viability (%) at 10 μM” value rises from 88% to 89%.

Compared with `CC(C)[C@@H]1CC[C@@H](C)C[C@H]1OCC(=O)N1CCc2ccccc2C1` [compound 1688], `CC(C)[C@@H]1CC[C@@H](C)C[C@H]1OC(=O)N1CCCc2ccccc21` [compound 1465] is lower in “Relative Viability (%) at 10 μM” value: 91% for the first, 90% for the second.

With `CC(C)[C@@H]1CC[C@@H](C)C[C@H]1OCC(=O)NCC1(c2ccccc2)CCCC1` [compound 1745] the “Relative Viability (%) at 10 μM” value was 88%.

Same assay, conditions: Table 3, Formula VII antagonists; 10 μM compound plus toxic concentration of control agonist, CHO/Trp-p8 cells, 37° C.; ATP level relative to DMSO

Going from `O=[N+]([O-])c1cc(Cl)ccc1N1CCN(c2ccc([N+](=O)[O-])c3cccnc23)CC1` [compound 34] to `Cc1cc(N2CCN(Cc3ccc4c(c3)SCO4)CC2)n2nc(C)c(-c3ccc(Br)cc3)c2n1` [compound 1313], the “Rel. Viab. (%) at 10 μM” value rises from 82% to 92%.

Compared with `FC(F)(F)Oc1ccc(Nc2nc(N3CCCCCC3)nc(N3CCN(C45CC6CC(CC(C6)C4)C5)CC3)n2)cc1` [compound 809], `OC(F)(F)Oc1ccc(Nc2nc(N3CCCCCC3)nc(N3CCN(C45CC6CC(CC(C6)C4)C5)CC3)n2)cc1` [compound 812] is higher in “Rel. Viab. (%) at 10 μM” value: 89% for the first, 99% for the second.

Going from `CC1CCC(C(C)C)C(OCC(O)CN2CCN(Cc3ccc(Cl)cc3)CC2)C1` (stereo not shown) [compound 2496] to `O=C1C(c2ccc(Cl)cc2)N(C2CCCCCC2)C(=O)CN1C1CCCC1` (stereo not shown) [compound 1283], the “Rel. Viab. (%) at 10 μM” value rises from 82% to 100%.

First: Cc1nc2sc(C(c3ccc(Br)cc3)N3CCN(C(c4ccccc4)c4ccccc4)CC3)c(O)n2n1 (stereo not shown) [compound 1021]
Second: COc1cc(C(c2sc3nc(C)nn3c2O)N2CCN(C(c3ccccc3)c3ccccc3)CC2)cc(OC)c1OC (stereo not shown) [compound 1028]
The “Rel. Viab. (%) at 10 μM” value of the first is higher: 92% for the first, 85% for the second.

Target: T1, Trp-p8
Test: Calcium flux assay (Fura-2) for agonists in CHO/Trp-p8 cells at 37° C.
Format: cell-based
Conditions: 1 μM, CHO and CHO/Trp-p8 cells
Procedure: FIGS. 2A-2C are graphs depicting Trp-p8 agonist-induced increases in intracellular calcium as determined by a calcium flux assay performed at 37° C.
Calcium influx was measured using a Flexstation Microplate Fluorescence Plate Reader (Molecular Devices; Sunnyvale, Calif.). A typical assay for calcium flux was performed as follows. Cells in DMEM/Ham's F-12 based medium, typically at a density of 30,000 cells/well/100 were plated in a 96-well black-walled, clear bottomed tissue culture plate (Greiner Bio-one) and incubated for 16-20 hours at 37° C. Cells in each well were incubated for one hour at 37° C. with a Fura2-AM Fluorescent Dye/Pluronic […] mixture (Molecular Probes; Eugene, Oreg.) and dissolved in the medium containing Probenecid. […]
Typically, the above described HEPES/HBSS-based buffer containing either no additional calcium or with calcium to increase the concentration to 2 mM and various concentrations of compounds (at 5-times the final concentrations) were added to each well using the robotic multi-channel pipettor. […] Signals were read with dual excitation wavelengths of 340 and 380 nm and emission wavelength of 510 nm with a cut-off filter at 495 nm. The signal was reported as the ratio of emission when excited at 340 nm to the emission when excited at 380 nm [Relative Fluorescence Units (RFU)]. […]

In the case of `C[C@H](CCC(=O)O)C[C@H](C)C[C@H](C)C(=O)/C=C(\O)[C@H](C)C[C@H](C)C/C=C/[C@@H](C)[C@@H](O)[C@@H](C)[C@@H](O)C[C@@H]1CC[C@@](C)([C@H]2CC[C@@](C)([C@@H](C)O)O2)O1` [Ionomycin, reference compound], the “Response to positive control in calcium flux assay (FIG. 2A)” value is reported as “respond similarly”.

Same assay, conditions: CHO/Trp-p8 cells

In the case of `CC(C)[C@@H]1CC[C@@H](C)C[C@H]1C(=O)NCCc1ccccc1` [compound 1603], the “Increase in intracellular calcium (FIG. 2C)” value is reported as “specific, concentration-dependent response”.

System: Trp-p8
Test: not given
Conditions: cold-sensitive neurons, Trp-p8 in Xenopus oocytes, HEK293 and CHO cells; cited from earlier work

For `CC1CCC(C(C)C)C(O)C1` (stereo not shown) [Menthol, 2-isopropyl-5-methyl-cyclohexanol], the “Higher temperature threshold reported for Trp-p8 activation” value is given as 30-32 °C.

System: Trp-p8 orthologues
Test: not given
Conditions: reported by McKemy et al. and Peier et al.; cited from earlier work

Compared with `CC1CCC(C(C)C)C(O)C1` (stereo not shown) [Menthol, 2-isopropyl-5-methyl-cyclohexanol], `O=C1NC(c2cccc([N+](=O)[O-])c2)=CCN1c1ccccc1O` [Icilin, 1-(2-hydroxyphenyl)-4-(3-nitrophenyl)-1,2,3,6-tetrahydropyrimidine-2-one] is lower in “Effective concentration in inducing calcium influx” value: 10 to 100 µM for the first, 0.1 to 1 µM for the second.
